Holding throughout (experiment): Inhibition Assay
Test [1] concerns the target T1, Coagulation factor VIII (Homo sapiens, UniProt P00451). The conditions noted are these: 37 °C. The text has this: Inhibition of factor VIII C2 domain.
The target of test [2] is T1, Coagulation factor VIII. Particulars: pH 7.9. The text has this:
Inhibition of factor X activation assay. A commercially available chromogenic assay that measures the rate of factor X activation to measure inhibiton of the cofactor function of factor VIII.

Test [3] concerns the target T1, Coagulation factor VIII. The conditions noted are these: pH 8. How it is done: Inhibition of factor VIII ELISA. The interaction between factor VIII and PS was measured by using an enzyme-linked immunoadsorbent assay (ELISA).

In BindingDB's records for doi:10.1016/j.chembiol.2004.08.006 (University of Washington, 2004) one finds IC50 data, which are given here for 15 compounds.

As a reminder, the IC50 is the midpoint of a concentration-inhibition curve. The low end stands for inhibition by little substance, the high end for a need for much substance.

T1 sequence (P00451 20-759 limits assumed): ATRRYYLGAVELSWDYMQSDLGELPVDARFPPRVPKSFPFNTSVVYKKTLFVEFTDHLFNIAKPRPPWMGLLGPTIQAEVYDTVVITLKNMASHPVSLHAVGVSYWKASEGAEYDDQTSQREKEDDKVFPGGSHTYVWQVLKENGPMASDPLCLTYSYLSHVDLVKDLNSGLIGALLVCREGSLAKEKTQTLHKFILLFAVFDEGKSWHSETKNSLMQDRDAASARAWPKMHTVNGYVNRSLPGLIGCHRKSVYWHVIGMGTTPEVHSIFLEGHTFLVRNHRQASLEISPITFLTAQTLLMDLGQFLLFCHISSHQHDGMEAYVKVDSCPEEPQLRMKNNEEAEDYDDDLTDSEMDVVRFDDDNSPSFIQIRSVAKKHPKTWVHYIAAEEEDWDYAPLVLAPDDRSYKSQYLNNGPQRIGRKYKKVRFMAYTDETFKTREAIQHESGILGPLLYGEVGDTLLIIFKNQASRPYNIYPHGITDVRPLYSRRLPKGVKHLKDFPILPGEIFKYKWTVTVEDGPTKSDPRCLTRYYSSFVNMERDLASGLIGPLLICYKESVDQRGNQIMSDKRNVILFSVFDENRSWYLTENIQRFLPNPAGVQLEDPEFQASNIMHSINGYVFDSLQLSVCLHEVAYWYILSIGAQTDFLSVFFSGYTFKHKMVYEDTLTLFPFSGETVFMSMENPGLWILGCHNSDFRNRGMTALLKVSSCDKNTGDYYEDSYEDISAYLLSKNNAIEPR
T1 sequence (P00451 1668-2351 limits assumed): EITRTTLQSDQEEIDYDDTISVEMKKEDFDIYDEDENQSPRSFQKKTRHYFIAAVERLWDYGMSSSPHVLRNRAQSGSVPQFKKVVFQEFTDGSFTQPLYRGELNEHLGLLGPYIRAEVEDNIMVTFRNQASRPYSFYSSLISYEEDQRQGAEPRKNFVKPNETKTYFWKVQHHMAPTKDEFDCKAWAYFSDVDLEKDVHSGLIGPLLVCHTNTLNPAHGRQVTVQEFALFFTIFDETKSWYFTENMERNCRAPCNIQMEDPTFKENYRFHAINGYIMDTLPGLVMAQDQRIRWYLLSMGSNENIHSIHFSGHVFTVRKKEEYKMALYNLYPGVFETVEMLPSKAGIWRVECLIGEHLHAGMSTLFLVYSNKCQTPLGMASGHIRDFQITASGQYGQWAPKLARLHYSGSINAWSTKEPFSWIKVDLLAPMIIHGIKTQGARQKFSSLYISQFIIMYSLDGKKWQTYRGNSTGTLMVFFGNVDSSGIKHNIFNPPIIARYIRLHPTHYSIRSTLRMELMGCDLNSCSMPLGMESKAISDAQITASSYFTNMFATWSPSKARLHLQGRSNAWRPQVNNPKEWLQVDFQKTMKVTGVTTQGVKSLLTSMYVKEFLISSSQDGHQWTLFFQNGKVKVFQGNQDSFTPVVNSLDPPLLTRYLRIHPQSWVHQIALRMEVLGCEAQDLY

For `CCOc1ccc(-c2cc(C)n3nc(C(N)=O)cc3n2)cc1`, the IC50 against Coagulation factor VIII [1] was determined as 26.8 µM.
Regarding `CC(C=Cc1ccco1)=NCCCCNC(=O)C=Cc1ccco1` [5247489], the IC50 against Coagulation factor VIII [1] was found to be 56.1 µM.
In turn, `CCOC(=O)c1c(NC(=S)NC(=O)c2ccccc2)sc2c1CCC(C)C2` (stereo unspecified) [5523453] had a half-inhibitory concentration (IC50) on Coagulation factor VIII [1] of 27.7 µM.
As for `O=C1/C(=C/c2ccc(Br)o2)SC(=S)N1c1cccc(C(F)(F)F)c1` [5737176], the IC50 is 8.5 µM against Coagulation factor VIII [2], 9.25 µM on Coagulation factor VIII [3] and 6.66 µM against Coagulation factor VIII [1].
For `O=C1/C(=C/c2ccc(I)o2)SC(=S)N1c1cccc(C(F)(F)F)c1` [5738875], in that order: 5 µM, 6.83 µM and 5.65 µM.
Consider `O=C1/C(=C/c2ccc(Br)o2)SC(=S)N1c1ccc([N+](=O)[O-])cc1` [5739991], for which the IC50 against Coagulation factor VIII [2] was 11.7 µM; against Coagulation factor VIII [3], 10.4 µM; against Coagulation factor VIII [1] it was 4.63 µM.
As to `N=C(NN=Cc1ccc(F)cc1)NN=Cc1ccc(F)cc1` [5924029], the IC50 against Coagulation factor VIII [1] was 24.5 µM.
Compound `COc1cc(/C=C2/SC(=S)N(CC(=O)Nc3ccccn3)C2=O)cc(OC)c1OC` [6126765] had an IC50 on Coagulation factor VIII [1] of 11.9 µM. Compared with the last compound, the IC50 is about 2.1-fold lower.
`CCOc1ccc(Cl)cc1/C=C1/SC(=S)N(CC)C1=O` [6168356]: the IC50 at Coagulation factor VIII [1] came out at 49.6 µM.
As to `O=C1NC(=S)NC(=O)C1=Cc1ccc(-c2cc(Cl)c([N+](=O)[O-])cc2Cl)o1` [6190013], the IC50 worked out at 7.5 µM at Coagulation factor VIII [2], 2.11 µM at Coagulation factor VIII [3] and 8.48 µM against Coagulation factor VIII [1].
In the case of `COc1cc(C=Nn2c(O)csc2=S)ccc1OCCOc1ccc(C(C)(C)C)cc1` [6209549], on Coagulation factor VIII [1], inhibition was half-maximal at 12.4 µM (IC50).
As to `O=C1/C(=C\c2ccc(Sc3ccc(Cl)cc3)o2)SC(=S)N1c1ccc([N+](=O)[O-])cc1` [6789536], the half-inhibitory concentration (IC50) came to 5.6 µM against Coagulation factor VIII [2], 4.81 µM against Coagulation factor VIII [3] and 5.85 µM on Coagulation factor VIII [1].
Take `O=C1/C(=C/c2ccc(-c3ccc(Cl)cc3Cl)o2)SC(=S)N1c1cccc(C(F)(F)F)c1` [8047577]: the IC50 against Coagulation factor VIII [2] turned out to be 2.1 µM; against Coagulation factor VIII [3] it was 2.56 µM; at Coagulation factor VIII [1], 2.44 µM.
The like results for `O=C1NC(=S)NC(=O)C1=Cc1ccc(-c2ccc(Cl)c(C(=O)O)c2)o1` [8048422] were, in that order, 6.7 µM, 3.89 µM and 4.17 µM.
As to `O=C1NC(=S)NC(=O)C1=Cc1ccc(-c2cccc(C(=O)O)c2Cl)o1` [8056354], the values for the IC50 against Coagulation factor VIII [2], on Coagulation factor VIII [3] and against Coagulation factor VIII [1] were 6.8 µM, 6.51 µM and 6.29 µM, respectively.
